# Key:
# Subacute toxicity assay = format: in vivo
# Procedure: (§1) In acute toxicity assay, 18 female Kunming mice (Jinan Pengyue Experimental Animal Breeding Co., Ltd., Jinan, China), 18–22 g of weight, were used. The mice were randomly divided into three groups (n = 6), and treated with vehicle (0.5% CMC-Na solution) or 4o (300, 2000 mg/kg) by gavage once. The body weight, toxicity effect, general behavior and mortality of mice were monitored within 14 days after 4o treatment. In subacute toxicity assay, 10 male and 10 female Kunming mice (Jinan Pengyue Experimental Animal Breeding Co., Ltd., Jinan, China), 18–22 g of weight, were used. The mice were randomly divided into two groups with 5 males and 5 females, and were orally treated with vehicle (0.5% CMC-Na solution) or 4o (1000 mg/kg) once a day for 28 days. […]. After 28 days of treatment, the mice were anaesthetized with isoflurane and killed by decapitation. The heart, liver, spleen and kidney tissues were collected, and histologically analyzed by H&E staining.
# [1] = biological target: T1, SHP2 protein in HCT116 cells (Homo sapiens, UniProt Q06124); test: Cellular thermal shift assay (CETSA); format: cell-based; conditions: HCT116, 10 μM 4o, 3 h, versus DMSO
# T1 construct: endogenous in cells; host or cells: HCT116
# T1 sequence (Q06124 1-593): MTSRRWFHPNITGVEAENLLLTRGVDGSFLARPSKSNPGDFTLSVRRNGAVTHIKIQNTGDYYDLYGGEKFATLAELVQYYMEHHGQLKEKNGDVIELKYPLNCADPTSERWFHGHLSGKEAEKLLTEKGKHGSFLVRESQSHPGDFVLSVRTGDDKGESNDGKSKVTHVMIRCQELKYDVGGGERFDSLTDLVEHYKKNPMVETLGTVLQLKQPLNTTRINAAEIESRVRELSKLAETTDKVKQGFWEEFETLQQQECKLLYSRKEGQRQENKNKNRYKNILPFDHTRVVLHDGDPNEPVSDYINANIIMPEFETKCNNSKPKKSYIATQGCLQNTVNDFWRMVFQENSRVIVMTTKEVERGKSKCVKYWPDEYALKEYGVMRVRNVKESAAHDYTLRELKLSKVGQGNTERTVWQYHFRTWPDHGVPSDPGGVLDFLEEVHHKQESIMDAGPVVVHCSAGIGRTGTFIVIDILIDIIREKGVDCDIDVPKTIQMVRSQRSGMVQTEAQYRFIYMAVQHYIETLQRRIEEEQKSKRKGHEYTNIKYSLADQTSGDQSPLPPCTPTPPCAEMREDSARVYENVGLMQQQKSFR
# Procedure: The assay was performed as described previously. In brief, HCT116 cells were treated with DMSO or 4o for 3 h. Cells were resuspended in PBS and divided into four aliquots, and then the cell lysates were heated at different temperatures by T100^TM Thermal Cycler (Bio-Rad, Hercules, CA, USA). The heated cells were subjected to repeated freezing and thawing with liquid nitrogen for three times followed by centrifugation at 20,000× g for 20 min at 4 °C. Finally, the supernatants were gathered and boiled for 10 min after adding the loading buffer. Protein levels were assessed by Western blotting.
# [2] = biological target: T2, recombinant human SHP2 protein (Homo sapiens, UniProt Q06124); test: Inhibition type of SHP2 (double reciprocal plot, pNPP); format: biochemical; conditions: 4o 0, 0.5, 1, 2 µM; various pNPP concentrations
# T2 sequence (Q06124 1-593): T1 sequence (Q06124 1-593)
# Procedure: Inhibition kinetic studies were performed with various concentrations of pNPP in the absence or presence of inhibitors. The experimental results were analyzed using double reciprocal plotting to evaluate the type of inhibition.
# The experimental process was similar to the SHP2 inhibition assay. In the assay, the initial rates at a series of pNPP concentrations were determined at various fixed inhibitor concentrations of 4o (0 µM, 0.5 µM, 1 µM and 2 µM) as described above. The values of 1/[S] and 1/[V] were obtained from the substrate concentration and initial reaction rate, and were plotted on the x-axis and y-axis, respectively. The inhibition type of SHP2 was determined according to the intersection characteristics of the obtained approximate line.
# Acute toxicity assay = format: in vivo; conditions: for Mortality: 14 days observation
# Procedure: as §1
# HCT116 cells = test: Western blotting of apoptosis-related proteins; format: cell-based, human; conditions: HCT116, 4o 2.5, 5 and 10 μM, 24 h, versus DMSO
# Procedure: HCT116 cells were harvested, lysed on ice in RIPA buffer (Beyotime Institute of Biotechnology, Shanghai, China) and boiled. Protein concentration was measured by BCA protein assay kit (Beyotime Institute of Biotechnology, Shanghai, China). The protein samples were separated by SDS-PAGE and transferred to the membrane (Pall, New York, NY, USA). Afterwards, the membrane was immunoblotted with the corresponding primary antibody (C-parp (#5625), C-cas9 (#9505), C-cas3 (#9661), Bcl-2 (#4223), Bax (#5023), SHP2 (#3752), P-Erk1/2 (#9101) and Erk1/2 (#9102), 1:1000, Cell Signaling Technology, Danvers, MA, USA; Tubulin (#ET1602-4), 1:5000, HUABIO, Hangzhou, China) and the appropriate HRP-conjugated secondary antibody, and determined with ECL detection reagent (Thermo Scientific, Waltham, MA, USA).
smiles,measurement,setting,value
"CCOc1ccc(Oc2ccc(C3=NN(C4=NC(=O)CS4)C(c4cc(O)c(O)c(Br)c4Br)C3)cc2)cc1 (stereo not shown) [Compound 4o, 2-(5-(2,3-dibromo-4,5-dihydroxyphenyl)-3-(4-(4-ethoxyphenoxy)phenyl)-4,5-dihydro-1H-pyrazol-1-yl)thiazol-4(5H)-one]",Body Weight (g) Day 0,Subacute toxicity assay; 1000 mg/kg orally once a day,19.08 ± 0.95 g
same,Body Weight (g) Day 7,Subacute toxicity assay; 1000 mg/kg orally once a day,27.52 ± 1.77 g
same,Body Weight (g) Day 14,Subacute toxicity assay; 1000 mg/kg orally once a day,33.41 ± 3.49 g
same,Body Weight (g) Day 21,Subacute toxicity assay; 1000 mg/kg orally once a day,35.49 ± 4.52 g
same,Body Weight (g) Day 28,Subacute toxicity assay; 1000 mg/kg orally once a day,36.63 ± 4.84 g
same,Mortality,"Subacute toxicity assay; 1000 mg/kg orally once a day, 28 days",0/10
same,"H&E staining of heart, liver, spleen and kidney","Subacute toxicity assay; 1000 mg/kg orally, 28 days",no significant change in the cell morphology
same,Stability of SHP2 protein (CETSA),[1],obviously increased
same,Inhibition type of SHP2,[2],competitive SHP2 inhibitor
same,Body Weight (g) Day 0,Acute toxicity assay; 300 mg/kg single oral dose,24.41 ± 0.64 g
same,Body Weight (g) Day 7,Acute toxicity assay; 300 mg/kg single oral dose,28.78 ± 0.78 g
same,Body Weight (g) Day 14,Acute toxicity assay; 300 mg/kg single oral dose,30.75 ± 0.99 g
same,Mortality,Acute toxicity assay; 300 mg/kg single oral dose,0/6
same,Body Weight (g) Day 0,Acute toxicity assay; 2000 mg/kg single oral dose,25.19 ± 1.45 g
same,Body Weight (g) Day 7,Acute toxicity assay; 2000 mg/kg single oral dose,30.51 ± 0.88 g
same,Body Weight (g) Day 14,Acute toxicity assay; 2000 mg/kg single oral dose,31.43 ± 1.09 g
same,Mortality,Acute toxicity assay; 2000 mg/kg single oral dose,0/6
same,Bax/Bcl-2 ratio,HCT116 cells,up-regulated
same,"Levels of cleaved parp, cleaved caspase9 and cleaved caspase3",HCT116 cells,increased
